This is an account of results in ChEMBL document CHEMBL5154654, “Design, synthesis and biological evaluation of 7-((7H-pyrrolo[2,3-d]pyrimidin-4-yl)oxy)-2,3-dihydro-1H-inden-1-one derivatives as potent FAK inhibitors for the treatment of ovarian cancer” (Eur J Med Chem, 2022).

In brackets after ≈: the same amount, converted by molar mass.

One may read the IC50 as the concentration needed to halve the response being measured. Low readings indicate greater potency in that assay, high ones weaker potency in that assay. As usually defined, the half-life is the time in which the quantity being followed falls by half. As a reminder, the solubility is the concentration that dissolves in the medium under given conditions. In general, inhibition refers to the percentage by which the read-out fell short of the control.

In data set [1] the target is Focal adhesion kinase 1 (Homo sapiens, UniProt Q05397). The data set is described as follows: Inhibition of FAK (unknown origin) using Fluorescein-Poly GAT as substrate incubated for 30 mins and measured after 60 mins by Lanthascreen assay.
Data set [2] is described as follows: Metabolic stability in human liver microsomes assessed as half-life incubated for 120 mins in presence of NADPH by LC-MS/MS analysis. Type of data set: ADME, Microsome. For orientation: Liver microsomes are vesicles of endoplasmic reticulum, rich in cytochrome P450 enzymes.
Data set [3] in a line: Metabolic stability in human liver microsomes assessed as parent compound remaining incubated for 120 mins in presence of NADPH by LC-MS/MS analysis. Particulars: read-out: Stability. Type of data set: ADME, Microsome.
Data set [4] is described as follows: Metabolic stability in human liver microsomes assessed as intrinsic clearance incubated for 120 mins in presence of NADPH by LC-MS/MS analysis. The following applies: read-out: CLH. Format: ADME, Microsome.
Data set [5] can be described thus: Aqueous solubility of compound. Type of data set: physicochemical. Particulars: aqueous (not further specified).
The species named for data set [6] is Homo sapiens. The data set is described as follows: Inhibition of MEK (unknown origin) at 1 uM incubated for 40 mins in presence of Mg/ATP mix relative to control.
For data set [7], the target named is Receptor-type tyrosine-protein kinase FLT3 (Homo sapiens) (UniProt P36888). Nature of the data set: Inhibition of FLT3 (unknown origin) at 1 uM incubated for 40 mins in presence of Mg/ATP mix relative to control.
Receptor-type tyrosine-protein kinase FLT3 (Homo sapiens), sequence (P36888 whole entry): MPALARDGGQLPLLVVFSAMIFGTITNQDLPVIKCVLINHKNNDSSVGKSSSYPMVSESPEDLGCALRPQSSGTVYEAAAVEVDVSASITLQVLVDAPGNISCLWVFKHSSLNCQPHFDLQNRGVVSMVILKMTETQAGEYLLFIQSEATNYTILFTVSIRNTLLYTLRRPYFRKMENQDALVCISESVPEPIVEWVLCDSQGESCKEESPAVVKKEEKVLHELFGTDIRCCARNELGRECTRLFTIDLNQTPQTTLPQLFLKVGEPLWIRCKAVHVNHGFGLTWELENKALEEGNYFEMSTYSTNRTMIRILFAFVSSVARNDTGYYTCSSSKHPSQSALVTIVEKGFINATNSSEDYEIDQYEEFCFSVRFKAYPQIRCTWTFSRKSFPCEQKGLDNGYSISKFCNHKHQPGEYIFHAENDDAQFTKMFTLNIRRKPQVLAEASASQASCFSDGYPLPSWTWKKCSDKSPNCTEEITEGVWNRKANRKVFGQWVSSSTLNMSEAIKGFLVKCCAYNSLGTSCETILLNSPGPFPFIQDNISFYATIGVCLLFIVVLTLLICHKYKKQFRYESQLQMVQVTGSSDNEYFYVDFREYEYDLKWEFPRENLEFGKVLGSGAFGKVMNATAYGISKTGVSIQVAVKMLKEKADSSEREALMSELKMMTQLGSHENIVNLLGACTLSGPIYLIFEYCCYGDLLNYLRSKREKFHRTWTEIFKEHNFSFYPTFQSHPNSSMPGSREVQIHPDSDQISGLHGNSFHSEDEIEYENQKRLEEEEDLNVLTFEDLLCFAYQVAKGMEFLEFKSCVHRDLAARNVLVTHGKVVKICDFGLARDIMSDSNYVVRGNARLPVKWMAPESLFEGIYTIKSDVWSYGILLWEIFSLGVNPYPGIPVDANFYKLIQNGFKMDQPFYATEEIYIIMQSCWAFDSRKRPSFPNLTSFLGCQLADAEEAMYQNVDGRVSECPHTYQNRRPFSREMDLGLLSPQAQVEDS

Focal adhesion kinase 1, sequence (Q05397 whole entry): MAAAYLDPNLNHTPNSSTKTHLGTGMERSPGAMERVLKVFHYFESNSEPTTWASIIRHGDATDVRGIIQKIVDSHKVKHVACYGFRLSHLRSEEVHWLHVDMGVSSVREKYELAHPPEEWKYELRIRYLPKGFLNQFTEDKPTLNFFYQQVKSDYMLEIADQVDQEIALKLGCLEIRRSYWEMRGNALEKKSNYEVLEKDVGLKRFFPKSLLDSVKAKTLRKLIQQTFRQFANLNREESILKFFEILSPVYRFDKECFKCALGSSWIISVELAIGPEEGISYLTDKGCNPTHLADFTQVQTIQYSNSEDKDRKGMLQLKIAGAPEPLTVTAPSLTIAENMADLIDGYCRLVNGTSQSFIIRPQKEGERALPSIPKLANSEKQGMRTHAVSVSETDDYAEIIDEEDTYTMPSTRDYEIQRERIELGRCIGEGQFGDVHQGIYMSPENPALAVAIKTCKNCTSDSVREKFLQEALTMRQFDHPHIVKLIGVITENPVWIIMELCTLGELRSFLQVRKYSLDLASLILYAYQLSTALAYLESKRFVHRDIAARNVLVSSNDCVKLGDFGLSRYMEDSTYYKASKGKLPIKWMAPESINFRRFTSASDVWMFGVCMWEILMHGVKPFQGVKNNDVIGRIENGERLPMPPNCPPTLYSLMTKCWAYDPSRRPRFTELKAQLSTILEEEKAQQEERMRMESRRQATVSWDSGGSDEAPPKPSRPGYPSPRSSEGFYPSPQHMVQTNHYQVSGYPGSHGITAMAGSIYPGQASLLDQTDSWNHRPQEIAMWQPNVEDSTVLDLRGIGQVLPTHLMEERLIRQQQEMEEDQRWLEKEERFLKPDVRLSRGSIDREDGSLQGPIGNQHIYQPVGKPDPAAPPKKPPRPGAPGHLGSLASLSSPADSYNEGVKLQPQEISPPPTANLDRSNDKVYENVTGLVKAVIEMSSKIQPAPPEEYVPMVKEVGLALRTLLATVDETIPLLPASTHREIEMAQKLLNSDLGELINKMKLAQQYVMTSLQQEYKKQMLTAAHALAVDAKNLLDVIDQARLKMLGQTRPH

Turning to `COc1cc(N2CCN(C)CC2)ccc1Nc1nc(Oc2cccc3c2C(=O)CC3)c2ccsc2n1`, the IC50 in data set [1] was greater than 1000 nM.

For the compound `O=C1CCc2cccc(Oc3nc(Nc4ccc(N5CCOCC5)cc4)nc4sccc34)c21`, in data set [1], the half-maximal inhibitory concentration (IC50) is greater than 1000 nM. Same read-out and setting: in the case of `COc1cc(N2CCOCC2)ccc1Nc1nc(Oc2cccc3c2C(=O)CC3)c2ccccc2n1` it was 654 nM; in that of `Cc1cc(Nc2nc(Oc3cccc4c3C(=O)CC4)c3cc[nH]c3n2)n(C(C)C)n1`, 206 nM. The same measure, in the same setting: next, `CN1CCN(c2ccc(Nc3nc(Oc4cccc5c4C(=O)CC5)c4ccsc4n3)cc2)CC1`: greater than 1000 nM; `COc1cc(N2CCN(C)CC2)ccc1Nc1nc(-n2ccc3ccccc32)c2cc[nH]c2n1`: 166 nM; `COc1cc(N2CCC(N3CCN(C)CC3)CC2)ccc1Nc1nc(-c2cnn(C)c2)c2cc[nH]c2n1`: 173 nM. The same measure, in the same setting: in the case of `COc1cc(N2CCN(C)CC2)ccc1Nc1nc(Oc2cccc3c2C(=O)CC3)c2sccc2n1` it was 41.4 nM; in that of `COc1nc(N2CCN(C)CC2)ccc1Nc1nc(Oc2cccc3c2C(=O)CC3)c2cc[nH]c2n1`, 9.05 nM. Compound `CN1CCN(c2ccc(Nc3nc(Oc4cccc5c4C(=O)CC5)c4cc[nH]c4n3)cc2)CC1` came in with an IC50 in data set [1] of 10.5 nM. Turning to `CN1CCN(c2ccc(Nc3nc(Oc4cccc5c4C(=O)CC5)c4cc[nH]c4n3)cc2Cl)CC1`, the half-life in data set [2] was 0.775 h. Besides, the remaining at 2 h in data set [3] came out at 15.7%. In data set [1], this compound showed an IC50 of 4.8 nM. Besides, the CLint scaled in data set [4] is 18.7 mL/min/kg. For `CN1CCN(c2ccc(Nc3nc(Oc4cccc5c4C(=O)CC5)c4ccccc4n3)cc2)CC1`, the half-inhibitory concentration (IC50) in data set [1] is greater than 1000 nM. For the compound `COc1cc(N2CCN(C)CC2)ccc1Nc1nc(Oc2cccc3c2C(=O)CC3)c2cc[nH]c2n1`, in data set [2], the half-life is greater than 2 h. Also, the remaining at 2 h in data set [3] was 62.7%. Moreover, in data set [1], it took 3.86 nM to reach half-maximal inhibition (IC50). The CLint scaled in data set [4] was found to be 52 mL/min/kg. The amount in solution in data set [5] (solubility) came to 13.6 µg/mL (≈ 28.1 µM). As for `COc1cc(N2CCN(C)CC2)ccc1Nc1nc(-n2cnc3ccccc32)c2cc[nH]c2n1`, the IC50 in data set [1] came to 36.8 nM. On the same count and under the same terms, in the case of `O=C1NCc2cc(Nc3nc(Oc4cccc5c4C(=O)CC5)c4cc[nH]c4n3)ccc21` it was 20.6 nM; in that of `O=C1CCc2cccc(Oc3nc(Nc4ccc(N5CCOCC5)cc4)nc4cc[nH]c34)c21`, greater than 1000 nM; in that of `Cc1cc(Nc2nc(Oc3cccc4c3C(=O)CC4)c3cc[nH]c3n2)ccc1N1CCN(C2COC2)CC1`, 6.32 nM. Take `COc1cc(N2CCC(N3CCN(C)CC3)CC2)ccc1Nc1nc(Oc2cccc3c2C(=O)CC3)c2ccsc2n1`: in data set [1], the IC50 was 945 nM. Compared with the last compound, the IC50 is about 150-fold higher.

Take `COc1cc(N2C[C@@H]3C[C@H]2CO3)ccc1Nc1nc(Oc2cccc3c2C(=O)CC3)c2cc[nH]c2n1`: the IC50 in data set [1] worked out at 9.6 nM. This IC50 lies about 98-fold lower than the previous one.

As to `COc1cc(N2CCN(C)CC2)ccc1Nc1nc(-c2cnn(C)c2)c2cc[nH]c2n1`, in data set [1], 330 nM corresponded to half-maximal inhibition (IC50). The same measure, in the same setting: next, `CN1CCN(c2ccc(Nc3nc(Oc4cccc5c4C(=O)CC5)c4cc[nH]c4n3)cc2F)CC1`: 5.64 nM; `COc1cc(N2CCC(N3CCN(C)CC3)CC2)ccc1Nc1nc(-n2ccc3ccccc32)c2cc[nH]c2n1`: 144 nM; `COc1cc(N2CCOCC2)ccc1Nc1nc(Oc2cccc3c2C(=O)CC3)c2cc[nH]c2n1`: 1140 nM. In data set [1], `COc1cc(C(=O)NC2CC2)ccc1Nc1nc(Oc2cccc3c2C(=O)CC3)c2cc[nH]c2n1` registered a half-maximal inhibitory concentration (IC50) of 10.9 nM. `CN1CCN(C2CCN(c3ccc(Nc4nc(Oc5cccc6c5C(=O)CC6)c5cc[nH]c5n4)cc3)CC2)CC1`: the half-life in data set [2] is 1.55 h. In addition, the remaining at 2 h in data set [3] is 42.2%. In data set [1], this compound registered an IC50 of 2.91 nM. In data set [4], the CLint scaled stood at 93 mL/min/kg. In addition, the solubility in data set [5] is 39.4 µg/mL (≈ 73.3 µM). As to `Cc1cc(Nc2nc(Oc3cccc4c3C(=O)CC4)c3cc[nH]c3n2)ccc1N1CCN(CC2CC2)CC1`, the half-life in data set [2] was less than 0.5 h. Moreover, the remaining at 2 h in data set [3] stood at 15.3%. The compound also showed an IC50 in data set [1] of 4.2 nM. Moreover, the CLint scaled in data set [4] is greater than 29 mL/min/kg. Compound `CN1CCN(c2ccc(Nc3nc(Oc4cccc5c4C(=O)CC5)c4sccc4n3)cc2)CC1` came in with an IC50 in data set [1] of 110 nM. Still for that read-out and setting: in the case of `Cc1cc(N2CCN(C)CC2)ccc1Nc1nc(Oc2cccc3c2C(=O)CC3)c2cc[nH]c2n1` it was 7.13 nM. As for `Cc1ccc(Oc2nc(Nc3ccc(N4CCC(N5CCN(C)CC5)CC4)cc3)nc3[nH]ccc23)c2c1CCC2=O`, the half-life in data set [2] was found to be 1.57 h. Also, the remaining at 2 h in data set [3] worked out at 41.5%. The compound further returned an IC50 in data set [1] of 2.47 nM. The CLint scaled in data set [4] came out at 93 mL/min/kg. In data set [5], this compound registered a solubility of 38 µg/mL (≈ 68.9 µM). `COc1cc(N2CCC(N3CCN(C)CC3)CC2)ccc1Nc1nc(Oc2cccc3c2C(=O)CC3)c2ccccc2n1` returned an IC50 in data set [1] of 246 nM. The same measure, in the same setting: in the case of `CN1CCN(c2ccc(Nc3nc(Oc4cccc5c4C(=O)CC5)c4cc[nH]c4n3)c(C(F)(F)F)c2)CC1` it was 99.8 nM. The same measure, in the same setting: in the case of `COc1cc(N2CCN(C)CC2)ccc1Nc1nc(Oc2cccc3c2C(=O)CC3)c2[nH]ccc2n1` it was greater than 1000 nM; in that of `O=C1CCc2cccc(Oc3nc(Nc4ccc(N5CCOCC5)cc4)nc4[nH]ccc34)c21`, 12.2 nM; in that of `COc1cc(N2CCC(N3CCN(C)CC3)CC2)ccc1Nc1nc(Oc2cccc3c2C(=O)CC3)c2sccc2n1`, 27.4 nM.

Consider `COc1cc(N2C[C@@H](C)O[C@@H](C)C2)ccc1Nc1nc(Oc2cccc3c2C(=O)CC3)c2cc[nH]c2n1`, for which the IC50 in data set [1] stood at 11.9 nM. Same read-out and setting: in the case of `O=C1CCc2cccc(Oc3nc(Nc4ccc(N5CCOCC5)cc4)nc4ccsc34)c21` it was 245 nM. The same measure, in the same setting: next, `COc1cc(N2CCN(C)CC2)ccc1Nc1nc(Oc2cccc3c2C(=O)CC3)c2ccccc2n1`: 231 nM. The same measure, in the same setting: next, `CN1CCN(c2ccc(Nc3nc(Oc4cccc5c4C(=O)CC5)c4cc[nH]c4n3)cc2C#N)CC1`: 20.6 nM; `COc1cc(N2CCC(N3CCN(C)CC3)CC2)ccc1Nc1nc(-n2cnc3ccccc32)c2cc[nH]c2n1`: 27.6 nM.

As to `Cc1cc(Nc2nc(Oc3cccc4c3C(=O)CC4)c3cc[nH]c3n2)ccc1OCCN(C)C`, the half-life in data set [2] was 0.867 h. The remaining at 2 h in data set [3] was determined as 19.8%. Also, in data set [1], the IC50 worked out at 3.93 nM. For the same compound, the CLint scaled in data set [4] was determined as 16.7 mL/min/kg. In data set [5], this compound had a solubility of 9.3 µg/mL (≈ 20.3 µM).

`COc1cc(N2CCC(N3CCN(C)CC3)CC2)ccc1Nc1nc(Oc2cccc3c2C(=O)CC3)c2[nH]ccc2n1` registered an IC50 in data set [1] greater than 1000 nM. `COc1cc(N2CCOCC2)ccc1Nc1nc(Oc2cccc3c2C(=O)CC3)c2sccc2n1` displayed an IC50 in data set [1] of 113 nM. Regarding `CNC(=O)c1ccc(Nc2ncc(C(F)(F)F)c(NCc3nccnc3N(C)S(C)(=O)=O)n2)cc1`, the inhibition in data set [6] and in data set [7] was greater than 90% in each case.

For the compound `COc1cc(N2CCOCC2)ccc1Nc1nc(Oc2cccc3c2C(=O)CC3)c2ccsc2n1`, the IC50 in data set [1] is greater than 1000 nM.

As to `COc1cc(N2CCN(C)CC2)ccc1Nc1nc(Oc2ccc(C)c3c2C(=O)CC3)c2cc[nH]c2n1`, the half-life in data set [2] was found to be 1.65 h. The remaining at 2 h in data set [3] was 42.2%. In data set [1], this compound returned an IC50 of 2.04 nM. The CLint scaled in data set [4] amounted to 8.8 mL/min/kg. Further, in data set [5], the solubility came out at 7.9 µg/mL (≈ 15.8 µM). `COc1cc(N2CCOCC2)ccc1Nc1nc(Oc2cccc3c2C(=O)CC3)c2[nH]ccc2n1` came in with a half-maximal inhibitory concentration (IC50) in data set [1] greater than 1000 nM.

In data set [1], `O=C1CCc2cccc(Oc3nc(Nc4ccc(N5CCOCC5)cc4)nc4ccccc34)c21` showed a concentration for half-maximal inhibition (IC50) greater than 1000 nM. The same measure, in the same setting: next, `CN1CCN(c2ccc(Nc3nc(Oc4cccc5c4C(=O)CC5)c4[nH]ccc4n3)cc2)CC1`: greater than 1000 nM.
